Laboratory results taken from patent US20220017520A1, “MACROCYCLIC COMPOUND AS CDK INHIBITOR, PREPARATION METHOD THEREFOR, AND USE THEREOF IN MEDICINE” (Keythera (Suzhou) Pharmaceuticals Co. Ltd., priority 2018, published 2022).

What was measured:
MCF-7 cells = assay: In vitro cell proliferation assay by BrdU method; format: cell-based; conditions: 72 hours, 10% FBS
Experimental: In Vitro Cell Inhibitory Activity of the Compound of the Present Invention
Experimental method: Cell proliferation assay was carried out by BrdU method (BrdU cell proliferation assay kit, Cell Signaling Technology Co.)
Preparation of gradient dilution solution of test compound: the 10 mM stock solution of test compound was subjected to 4-fold serial gradient dilution with DMSO to obtain solutions with a concentration of 2.5 mM, […], respectively. 2 μL of DMSO-diluted compound was added to 198 μL of culture medium containing 10% FBS to obtain 10-fold test compound, wherein the maximum concentration of the test compound was 10 μM, the DMSO concentration was 1%, with a total of 7 concentration gradients.
MCF-7 culture medium: DMEM+10% FBS+0.01 mg/mL insulin
(1) Cells grown to 80% (in exponential growth phase) were digested with pancreatin, and were collected by centrifugation. MDA-MB-435S cells and U87MG cells were re-suspended in a FBS-free culture medium, counted and inoculated to a 96-well plate; MDA-MB-435S cells were inoculated at 3000 cells/well/81 μL, and U87MG cells were inoculated at 4000 cells/well/81 μL. MCF-7 cells were resuspended in a culture medium containing 1% FBS, counted and inoculated to a 96-well plate at 4000 cell/well/82 μL. The cells were incubated in a cell incubator at 37° C.
(2) After 24 hours of incubation, FBS (9 μL) was added to each well of the MDA-MB-435S cells and U87MG cells, and 8 μL of FBS was added to each well of the MCF-7 cells, so as to obtain a final FBS concentration of 10%.
(3) A different concentration of 10-fold test compound (10 μL) was added to each well to obtain a final concentration of test compound of 10 μM, 2.5 μM, 625 nM, 156 nM, 39 nM, 9.8 nM or 2.5 nM, respectively, with 3 repeated wells/group, and the cells were incubated at 37° C. for 72 hours.
(4) 10-fold BrdU solution (10 μL) was added to each well, and the cells were incubated in the incubator for 4 hours, followed by discarding the culture medium.
(5) Fixing/denaturation solution (10 μL) was added to each well, and the cells were incubated at room temperature for 30 minutes, followed by discarding the solution.
(6) 1-fold detection antibody solution (100 μL) was added to each well, the cells were incubated at room temperature for 1 hour, followed by discarding the solution, and the cells were washed with 1-fold washing solution (200 μL/well) three times.
(7) 1-fold HRP-labelled secondary antibody solution (100 μL) was added to each well, the cells were incubated at room temperature for 30 minutes, followed by discarding the solution, and the cells were washed with 1-fold washing solution (200 μL/well) three times.
(8) TMB substrate solution (100 μL) was added to each well, and the cells were incubated at room temperature for 30 minutes.
(9) Stop solution (100 μL) was added to each well, and the OD value at 450 nm was measured by a microplate reader.
1) Cell survival rate (%)=(ODtest compound−ODblank control)/(ODnormal cell control−ODblank control)×100%,
2) The data was processed by GraphPad Prism 5 software to obtain the curve and IC50 values.

metastatic breast cancer = conditions: drug alone, patients with hormone receptor-positive metastatic breast cancer, Phase I; cited from earlier work

## Abemaciclib [LY2834219, reference compound]
MCF-7 cells
  IC50: 120 nM
Metastatic breast cancer
  clinical benefit rate: 61%
